Source: EP3381907A1, “SYMMETRICAL 2-AMINOPHENYL-BENZAZOLYL-5-ACETATE COMPOUNDS AND THEIR USE AS ANTI-HEPARANASE” (Leadiant Biosciences SA, priority 2017, dated 2018)

Assays:
[1] = system: HT1080 (human fibrosarcoma); assay: Matrigel cell invasion assay, HT1080; format: cell-based; conditions: HT-1080, HT1080, test compound at 2.5 µM, 24 h pre-treatment, 24 h invasion
Experimental: (§1) Heparanase inhibitors were then evaluated for their activity on the invasive potential of HT1080 (human fibrosarcoma), U87MG (human glioblastoma astrocytoma) and U2OS (human osteosarcoma) human cell lines, using the Matrigel cell invasion assay which allows to assess the cell invasion ability of malignant and normal cells.
(§2) Invasion assay was performed using BioCoat cell culture inserts (BioCoat 8.0µm PET Membrane 24 Well Permeable Supports, Corning). Filters were coated with 100 µl of 300 µg/ml Matrigel dissolved in coating buffer (0.01 M Tris pH 8.0, 0.7% NaCl) (Becton-Dickinson Sciences). DMEM (Dulbecco's Modified Eagle's Medium) containing 5% FBS was added to the lower chambers. Cells were pre-treated with heparanase inhibitors for 24 h, detached and added to the upper chambers in media containing the inhibitors. Cells were allowed to invade for 24 h at 37°C in a CO2 incubator and then unmigrated cells were removed from the upper chamber with a cotton swab. The invading cells were fixed, stained with 0.1% crystal violet for 10 min at room temperature, photographed and counted under inverted microscope.
(§3) Test compounds were analyzed at fixed concentration (2.5 µM) for several fields, in duplicates. Activity of test compounds was compared to the reference compound. Activity of most interesting compound was confirmed in a second cell invasion assay. Data were expressed as the percent invasion with respect to cell migration through uncoated insert membrane (see Table 3 below)
(§4) Table 3. […] In Invasion assay, data were expressed as the percent invasion (range) with respect to cell migration through uncoated insert membrane. In Adhesion assay, data were expressed as the percent of adhesion with respect to the control (100%). • Legend • ++: 50-90% • + : < 50% • - : Not Active

[2] = system: U2OS (human osteosarcoma); assay: Matrigel cell invasion assay, U2OS; format: cell-based; conditions: Homo sapiens, test compound at 2.5 µM, 24 h pre-treatment, 24 h invasion
Experimental: as §1, §2, §3, §4

[3] = system: U87MG (human glioblastoma astrocytoma); assay: Cell adhesion assay on matrigel coated wells, U87MG; format: cell-based; conditions: test compound at 2.5 µM, percent of adhesion with respect to the control (100%)
Experimental: (§5) Cell surface, non-integrin molecules such as heparan sulfate proteoglycans (HSPGs) may be involved in the regulation of early adhesive stages of cell-ECM interactions. A cell adhesion assay has been employed to determine if the newly designed heparanase inhibitors were able to interfere with adhesion properties of cancer cells.
(§6) HT1080 (human fibrosarcoma) and U87MG (human glioblastoma astrocytoma) cells were treated for 18-20 h with test compounds in complete medium supplemented with 10% FCS. Then cells were collected, washed in complete medium, and added to matrigel coated wells in triplicate, at previously identified optimal seeding density, and incubated at 37 °C in complete medium for times ranging from 15 minutes to 4h, according to the cell line. After incubation, the wells were washed three times with serum-free medium and the remaining firmly attached cells were stained with crystal-violet 0.1%. Optical density was measured at 560 nm by Victor 3 (Perkin-Elmer) plate analyzer. Each experiment was repeated three times.
as §4

[4] = system: U87MG (human glioblastoma astrocytoma); assay: SRB Cell Cytotoxicity Assay, U87MG; format: cell-based; conditions: U-87 MG, 72h treatment, read-out: Concentration (µM) of test compounds at which the cell growth is inhibited by 50 %. U87MG
Description: (§7) SRB Cell Cytotoxicity Assay is an assay based upon the quantitative staining of cellular proteins by sulforhodamine B (SRB). This assay can be used for high-throughput drug screening (Vichai & Kirkitara, Nature Protocol. 2006, 1, 112). Sulforhodamine B is an anionic aminoxanthene dye that forms an electrostatic complex with the basic amino acid residues of proteins under moderately acid conditions, which provides a sensitive linear response.
(§8) To assess a putative antiproliferative activity of the selected compounds, HT1080 (human fibrosarcoma), U87MG (human glioblastoma astrocytoma) and U2OS (human osteosarcoma) cell lines were treated for 72h, in triplicate, with increasing concentrations of heparanase inhibitors. Inhibition of cell proliferation was then measured by the classical colorimetric SRB Cell Cytotoxicity assay. Absorbance was measured by spectrophotometer at a wavelength of 510 nm and cell proliferation was determined as percent with respect to control cells (cells treated with the vehicle alone). EC50 values were then determined by GraphPad Prism.

[5] = system: HT1080 (human fibrosarcoma); assay: Cell adhesion assay on matrigel coated wells, HT1080; format: cell-based; conditions: HT1080, test compound at 2.5 µM; percent of adhesion with respect to the control (100%)
Experimental: as §5, §6, §4

FGF-1 = assay: Real-Time quantitative PCR of FGF-1 mRNA in HT1080 cells; format: cell-based, human; conditions: 24 h
Experimental: (§9) To evaluate the effect of heparanase inhibitors on the tumor transcription of genes encoding for proangiogenic factors, such as FGF1/2, VEGF, MMP-9, HSPE-1, the relative mRNA levels were analyzed by quantitative Real-Time Quantitative PCR. To perform the assay, HT1080 (human fibrosarcoma) cells were cultured in complete medium containing 10%FCS (fetal calf serum). Cells were plated in 24-well plates and treated at fixed concentration (i.e., highest non-toxic concentration) of test compounds. After 24 h, cells were detached, collected and total RNA extracted by RNeasy Mini Kit (QIAGEN). Following reverse transcription step, FGF1/2, VEGF, MMP-9, HSPE-1 mRNA levels, were quantified by qPCR using the advanced Universal SYBR Green Supermix (Bio Rad) and ABI PRISM 7900HT Thermal Cycler System (Perkin Elmer), according to the manufacturer's instructions. Appropriate no-RT and non-template controls were included in each 96-well PCR reaction, and dissociation analysis was performed at the end of each run to confirm the specificity of the reaction. Relative levels of RNA were calculated using the ddCt method. Standard curve and sample data were run in duplicate.
(§10) In the Table 5 a mean value is reported.

MMP-9 = assay: Real-Time quantitative PCR of MMP-9 mRNA in HT1080 cells; format: cell-based, human; conditions: 24 h
Experimental: as §9, §10

FGF-2 = assay: Real-Time quantitative PCR of FGF-2 mRNA in HT1080 cells; format: cell-based, human; conditions: 24 h
Experimental: as §9, §10

[6] = system: U2OS (human osteosarcoma); assay: SRB Cell Cytotoxicity Assay, U2OS; format: cell-based; conditions: 72h treatment, read-out: Concentration (µM) of test compounds at which the cell growth is inhibited by 50 %. U2OS
Description: as §7, §8

[7] = system: HT1080 (human fibrosarcoma); assay: SRB Cell Cytotoxicity Assay, HT1080; format: cell-based; conditions: HT-1080, HT1080, 72h treatment, read-out: Concentration (µM) of test compounds at which the cell growth is inhibited by 50 %. HT1080
Description: as §7, §8

HPSE-1 = assay: Real-Time quantitative PCR of HPSE-1 mRNA in HT1080 cells; format: cell-based, human; conditions: 24 h
Experimental: as §9, §10

Row | SMILES | inhibition at 2.5 µM [1] [%] | inhibition at 2.5 µM [2] [%] | Adhesion Assay (%) U87MG [3] [%] | EC50 [4] [µM] | Adhesion Assay (%) HT1080 [5] [%] | Gene Expression (% mRNA vs. control) FGF-1 (FGF-1; 2.5 uM) | Gene Expression (% mRNA vs. control) MMP-9 (MMP-9; 2.5 uM) | Gene Expression (% mRNA vs. control) FGF-2 (FGF-2; 2.5 uM) | EC50 [6] [µM] | EC50 [7] [µM] | Gene Expression (% mRNA vs. control) HPSE-1 (HPSE-1; 2.5 uM) | Gene Expression (% mRNA vs. control) FGF-1 (FGF-1; 10.0 uM) | Gene Expression (% mRNA vs. control) MMP-9 (MMP-9; 10.0 uM) | Gene Expression (% mRNA vs. control) FGF-2 (FGF-2; 10.0 uM) | Gene Expression (% mRNA vs. control) HPSE-1 (HPSE-1; 10.0 uM)
1 | O=C(O)Cc1ccc2oc(-c3ccc(NC(=O)Nc4ccc(-c5nc6cc(CC(=O)O)ccc6o5)cc4F)c(F)c3)nc2c1 [Compound 20, 2,2'-(((Carbonylbis(azanediyl))bis(3-fluoro-4,1-phenylene))bis(benzo[d]oxazole-2,5-diyl))diacetic acid] | < 50 | 50 to 90 | 64.90 | > 10 | 83.25 | ∼ 85% | ∼ 70% | ∼ 88% | > 10 | > 10 | ∼ 100% | – | – | – | –
2 | O=C(O)CNC(=O)Cc1ccc2oc(-c3ccc(NC(=O)Nc4ccc(-c5nc6cc(CC(=O)NCC(=O)O)ccc6o5)cc4F)c(F)c3)nc2c1 [Compound 25, 2,2'-((2,2'-(((Carbonylbis(azanediyl))bis(3-fluoro-4,1-phenylene))bis(benzo[d]oxazole-2,5-diyl))bis(acetyl))bis(azanediyl))diacetic acid] | 50 to 90 | < 50 | 12.30 | > 10 | 81.60 | – | – | – | > 10 | > 10 | – | ∼ 52% | ∼ 65% | ∼ 68% | ∼ 62%
